Our source for the IC50 values is ChEMBL document CHEMBL5729397, “Targeted drug rescue with novel compositions, combinations, and methods thereof” (2022).

The target in this data set is Cytochrome P450 2D6 (Homo sapiens, UniProt P10635). Description: Inhibition of Dextromethorphan Metabolism: Dextromethorphan O-demethylase activity was determined in human liver microsomes. […] The incubation mixtures contained pooled human liver microsomes (final concentrations: 0.25 mg/ml), dextromethorphan, and a NADPH-generating system (1.3 mM NADP+, 3.3 mM glucose 6-phosphate, 3.3 mM MgCl2, and 0.4 U/ml glucose-6-phosphate dehydrogenase). […] All incubations were performed in triplicate, and mean values were used for analysis. On the technique in general: Microsomes from liver hold many membrane-bound enzymes, among them those of drug oxidation.
Cytochrome P450 2D6, sequence (P10635 whole entry): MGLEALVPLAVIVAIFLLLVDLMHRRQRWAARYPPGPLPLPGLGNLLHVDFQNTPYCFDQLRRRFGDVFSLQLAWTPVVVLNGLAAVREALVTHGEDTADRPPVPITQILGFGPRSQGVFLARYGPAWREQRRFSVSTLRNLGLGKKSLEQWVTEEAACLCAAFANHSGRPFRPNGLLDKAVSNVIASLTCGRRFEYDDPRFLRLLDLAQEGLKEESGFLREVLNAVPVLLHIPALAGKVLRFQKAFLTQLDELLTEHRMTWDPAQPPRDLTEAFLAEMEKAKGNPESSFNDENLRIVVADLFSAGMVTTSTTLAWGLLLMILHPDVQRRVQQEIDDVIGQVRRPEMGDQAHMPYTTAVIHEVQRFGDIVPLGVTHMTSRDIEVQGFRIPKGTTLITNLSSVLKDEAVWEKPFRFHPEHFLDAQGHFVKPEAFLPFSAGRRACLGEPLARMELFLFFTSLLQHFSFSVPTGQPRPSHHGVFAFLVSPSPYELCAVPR

As to `COc1ccc(CCc2ccccc2OCC(CN(C)C)OC(=O)CCC(=O)O)cc1` (stereo unspecified), the IC50 was 1200 nM.

By IC50 is commonly meant the concentration at which inhibition is half-maximal.
